Experimental data published in patent EP0297610A1, “N-[(2,6-disubstituted)phenyl]-urea and carbamate inhibitors of acyl-CoA:cholesterol acyl-transferase” (WARNER-LAMBERT COMPANY, priority 1987, dated 1989).

Experiments:
male Sprague-Dawley rats = experiment: In vivo screen PCC: total blood cholesterol in cholesterol-fed rats; settings: one week; for % Change: change of total blood cholesterol vs control (181 mg/dl), 0.05% test drug in diet, rats; for Total Blood Cholesterol: male Sprague-Dawley rats, 0.05% test drug admixed into diet with 5.5% peanut oil, 1.5% cholesterol, 0.3%-0.5% cholic acid, Control = 181
From the text: In an in vivo screen, designated PCC, male Sprague-Dawley rats (approximately 200 g body weight) are randomly divided into groups and provided ad libidum a regular chow diet (Purina No. 5002, Ralston Purina Co., 711 West Fuesser Road, Mascoutah, Illinois, 62224, USA), supplemented with 5.5% peanut oil, 1.5% choles-terol, and 0.3%-0.5% cholic acid, together with 0.05% of the test drug which is admixed into the diet. After one week the animals are etherized and a blood sample is taken from the heart and mixed with 0.14% ethylene-diamine tetraacetic acid (EDTA) to measure the total cholesterol.

[1] = molecular target: acyl-CoA:cholesterol acyltransferase (ACAT); experiment: In vitro ACAT inhibition: formation of radiolabeled cholesterol oleate from radiolabeled oleic acid in rabbit intestinal microsomes; assay type: biochemical; settings: tissue preparation containing rabbit intestinal microsomes, read-out: IC₅₀

IC50 [1]	SMILES	% Change (male Sprague-Dawley rats)	Total Blood Cholesterol (male Sprague-Dawley rats)
0.019 µM	CCCCCCCCCCCCCCNC(=O)Nc1c(CC)cccc1C(C)C [Example 1, N-[2-Ethyl-6-(1-methylethyl)-phenyl]-N′-tetradecylurea]	-41%	106 (Control = 181) mg/dl
0.037 µM	CCCCCCCC/C=C\CCCCCCCCNC(=O)Nc1c(CC)cccc1C(C)C [Example 2, (Z)-N-[2-Ethyl-6-(1-methylethyl)-phenyl]-N′-9-octadecenylurea]	-41%	107 (Control = 181) mg/dl
10 µM	CCCCCCCC/C=C\CCCCCCCCNC(=S)Nc1c(C)cccc1C [Example 3, (Z)-N-(2,6-Dimethylphenyl)-N′-9-octadecenylthiourea]		
0.16 µM	CCCCCCCC/C=C\CCCCCCCCNC(=O)Nc1c(C)cccc1C [Example 4, (Z)-N-(2,6-Dimethylphenyl)-N′-9-octadecenylurea]		
0.18 µM	CCCCCCCC/C=C\CCCCCCCCNC(=O)Nc1c(C)cccc1Cl [Example 5, (Z)-N-(2-Chloro-6-methylphenyl)-N′-9-octadecenylurea]		
0.4 µM	CCCCCCCC/C=C\CCCCCCCCNC(=O)Nc1c(Cl)cccc1Cl [Example 6, (Z)-N-(2,6-Dichlorophenyl)-N′-9-octadecenylurea]		
0.027 µM	CCCCCCCCCCCCCCNC(=O)Nc1c(C)cccc1Cl [Example 7, N-(2-Chloro-6-methylphenyl)-N′-tetradecylurea]		
1.1 µM	CCCCCCCCCCCCCCCCCCNC(=O)Nc1c(C)cccc1Cl [Example 10, N-(2-Chloro-6-methylphenyl)-N′-octadecylurea]		
0.42 µM	CCCCCCCCCCCCCCNC(=S)Nc1c(CC)cccc1CC [Example 12, N-(2,6-Diethylphenyl)-N′-tetradecylthiourea]		
0.2 µM	CCCCCCCCCCNC(=O)Nc1c(C)cccc1C(C)(C)C [Example 18, N-Decyl-N′-[2-(1,1-dimethylethyl)-6-methylphenyl]urea]		

More lines, now with the values behind:

SMILES	IC50 [1]	% Change (male Sprague-Dawley rats)	Total Blood Cholesterol (male Sprague-Dawley rats)
CCCCCCCCCCCCCCNC(=O)Nc1c(CC)cccc1CC [Example 8, N-(2,6-Diethylphenyl)-N′-tetra-decylurea]	0.021 µM		
CCCCCCCCCCCCCCCCCCNC(=O)Nc1c(C(C)C)cccc1C(C)C [Example 11, N-[2,6-bis(1-Methylethyl)phenyl]-N′-octadecylurea]	0.048 µM		
CCCCCCCCCCNC(=O)Nc1c(C(C)C)cccc1C(C)C [Example 15, N-[2,6-bis(1-Methylethyl)phenyl]-N′-decylurea]	0.056 µM		
CCCCCCCCCCNC(=O)Nc1c(C)cccc1C(C)C [Example 17, N-Decyl-N′-[2-methyl-6-(l-methylethyl)-phenyl]urea.]	0.21 µM		
CCCCCCCCCCC(C)(C)NC(=O)Nc1c(CC)cccc1CC [Example 19, N-(2,6-Diethylphenyl)-N′-(1.1-dimethylundecyl)urea]	0.052 µM	-60%	73 (Control = 181) mg/dl
CCCCCCCCCCC(C)(C)NC(=O)Nc1c(C(C)C)cccc1C(C)C [Example 20, N-[2.6-bis(1-Methylethyl)phenyl]-N′-(1,1-dimethylundecyl)urea]	0.045 µM		
CCCCCCCCCCC1(NC(=O)Nc2c(CC)cccc2CC)CCCC1 [Example 21, N-(1-Decylcyclopentyl)-N′-(2.6-diethylphenyl)urea]	0.1 µM		
